The values below come from patent US20240245736A1, “COMPOSITIONS AND METHODS FOR REDUCING BLOOD ALCOHOL CONTENT” (LIFE WELL LIVED, LLC, priority 2012, published 2024).

The nature of the experiment: BAC scores by breathalyzer and observed behavior in subjects who had voluntarily consumed alcohol, compared with projected BAC. More on the design: actual BAC score / actual BAC: unit not given here. The note with it: for signs of intoxication: twenty minutes after administration; for effect on the subject's BAC score, summary of the experiments: actual vs projected BAC over the course of the experiment; for change in BAC twenty minutes after administration: summary over subjects. Format: in vivo, human. The source says: The following experiments involved subjects who voluntarily consumed alcoholic beverages. The subjects chose the type and amount of alcohol that was consumed, as well as the rate at which the alcohol was consumed. At the point when the subjects started to feel effects of their alcohol consumption and chose to stop consuming alcohol, the subjects voluntarily consumed a composition that contained a source of NAD+, Lactobacillus, Bifidobacterium, or a combination of two or more of those ingredients. Projected BAC scores were calculated approximately every twenty minutes using an online BAC calculator provided by the Wisconsin Department of Transportation, which provides a projected BAC based on factors such as the subject's weight, sex, alcohol consumed, rate of alcohol consumed, and food consumed. BAC scores were also quantitatively measured approximately every twenty minutes using a breathalyzer. The projected BAC score served as a negative control because it estimates the change in BAC that is expected to occur over time after a subject stops consuming alcohol. Changes in each subject's behavior were also observed over the course of the experiment.
The ingredients that were administered to the subjects are commercially available and sold for human consumption. In the following experiments, NAD+ was provided by administering 5 mL of Liquid CoQ10, which is made by NOW Foods and contains 5 mg NAD+ in the 5 mL dose. To administer Lactobacillus, the subjects were given two Culturelle® Health & Wellness capsules, each of which contains Lactobacillus GG (10 billion cells). To administer Bifidobacterium, subjects were given two capsules of Align® Bifantis® Bifidobacterium infantis 35624, which contain 1 billion cfu per capsule. To administer Lactobacillus and Bifidobacterium, subjects were given 1-2 capsules of Dr. Mercola's® Complete Probiotics capsules, each of which contains 35 billion cells including the following species: Lactobacillus acidophilus DDS-1, Lactobacillus casei, Lactobacillus plantarum, Lactobacillus salivarius, Lactobacillus rhamnosus, Lactobacillus brevis, Bifidobacterium lactis, Bifidobacterium longum, Bifidobacterium bifidum, and Streptococcus thermophilus. Subjects were also given 5 mg of zinc, which was provided in liquid form.

Turning to `NC(=O)c1ccc[n+]([C@@H]2O[C@H](COP(=O)([O-])OP(=O)(O)OC[C@H]3O[C@@H](n4cnc5c(N)ncnc54)[C@H](O)[C@@H]3O)[C@@H](O)[C@H]2O)c1` [NAD+, nicotinamide adenine dinucleotide, reference compound], the “effect on the subject's BAC score, summary of the experiments” value (“effect … of the experiments” for short) was “no effect or only a minimal effect” and the “change in BAC twenty minutes after administration” value (“change in BAC twenty minutes” below) is reported as “increase in BAC”. For the same compound, the “actual BAC score” value (FIG. 1, person, 198 pounds, beer and wine, 11:12, twenty minutes after administration, BAC at administration 0.089, projected 0.084) worked out at 0.082. Moreover, under “FIG. 1 subject”, the “effect on the subject's BAC score, actual vs projected” value (“effect … vs projected” below) is recorded as “no effect” and the signs of intoxication result is given as “continued to exhibit signs of intoxication”. Further, for the setting “FIG. 2, person, 188 pounds, beer, 11:12, twenty minutes after administration, BAC at administration 0.085, projected 0.085”, the “actual BAC score” value was 0.086. Also, under “FIG. 2 subject”, the “effect … vs projected” value is “minimal or no effect” and the signs of intoxication result was “continued to exhibit signs of intoxication”. Moreover, under “FIG. 3, person, 169 pounds, beer and vodka, 11:12, twenty minutes after administration, BAC at administration 0.086, projected 0.087”, the “actual BAC score” value turned out to be 0.086. For the same compound, where the note is “FIG. 3 subject”, the “effect … vs projected” value was “little effect” and the signs of intoxication entry is reported as “continued to exhibit signs of intoxication”. In addition, the “actual BAC” value (FIG. 9, person, 182 pounds, beer and vodka, 11:32, 40 minutes after NAD+ at 10:52 (BAC 0.088), before Lactobacillus and Bifidobacterium) is 0.056.

For Bifidobacterium, the “effect … of the experiments” value is recorded as “no effect or only a minimal effect” and the “change in BAC twenty minutes” value is “increase in BAC”. Also, the “actual BAC” value (FIG. 7, person, 146 pounds, wine, 1:20, twenty minutes after administration, BAC at administration 0.159, projected 0.157) came out at 0.151. The “effect … vs projected” value (FIG. 7 subject) is on record as “little effect”. In addition, where the note is “FIG. 8, person, 171 pounds, 12:40, twenty minutes after administration, BAC at administration 0.13, projected 0.132”, the “actual BAC” value was found to be 0.125. For the same compound, where the note is “FIG. 8 subject”, the “effect … vs projected” value is “little effect”.

Turning to Lactobacillus, the “effect … of the experiments” value is given as “no effect or only a minimal effect” and the “change in BAC twenty minutes” value is reported as “increase in BAC”. In addition, for the setting “FIG. 4, person, 122 pounds, wine and vodka, 7:25, twenty minutes after administration, BAC at administration 0.086, projected 0.084”, the “actual BAC score” value was determined as 0.082. In addition, where the note is “FIG. 4 subject”, the “effect … vs projected” value was “no effect” and the signs of intoxication result is listed as “continued to exhibit signs of intoxication”. In addition, the “actual BAC score” value (FIG. 5, person, 155 pounds, beer and wine, 7:25, twenty minutes after administration, BAC at administration 0.13, projected 0.129) was determined as 0.12. The “effect … vs projected” value (FIG. 5 subject) is “little effect”. Also, the “actual BAC score” value (FIG. 6, person, 169 pounds, beer and vodka, 7:25, twenty minutes after administration, BAC at administration 0.086, projected 0.074) came to 0.067. Also, the “effect … vs projected” value (FIG. 6 subject) is reported as “little effect”.
